Experimental data from ChEMBL document CHEMBL1201861, “Genomics of Drug Sensitity in Cancer screening data, Wellcome Trust Sanger Institute”.
pIC50: −log10 of the molar value.

What was measured:
Assay in all cases: cells
CP66-MEL = format: functional, cell-based, Homo sapiens; details: Homo sapiens, CP66-MEL
Description: SANGER: Inhibition of human CP66-MEL cell growth in a cell viability assay.

CTV-1 = format: functional, cell-based, Homo sapiens; details: Homo sapiens, CTV-1
Description: SANGER: Inhibition of human CTV-1 cell growth in a cell viability assay.

CW-2 = format: functional, cell-based, Homo sapiens; details: Homo sapiens, CW-2
Description: SANGER: Inhibition of human CW-2 cell growth in a cell viability assay.

DB = format: functional, cell-based, Homo sapiens; details: Homo sapiens, DB
Description: SANGER: Inhibition of human DB cell growth in a cell viability assay.

DOHH-2 = format: functional, cell-based, Homo sapiens; details: Homo sapiens, DOHH-2
Description: SANGER: Inhibition of human DOHH-2 cell growth in a cell viability assay.

EKVX = format: functional, cell-based, Homo sapiens; details: Homo sapiens, EKVX
Description: SANGER: Inhibition of human EKVX cell growth in a cell viability assay.

ES6 = format: functional, cell-based, Homo sapiens; details: Homo sapiens, ES6
Description: SANGER: Inhibition of human ES6 cell growth in a cell viability assay.

ETK-1 = format: functional, cell-based, Homo sapiens; details: Homo sapiens, ETK-1
Description: SANGER: Inhibition of human ETK-1 cell growth in a cell viability assay.

EW-18 = format: functional, cell-based, Homo sapiens; details: Homo sapiens, EW-18
Description: SANGER: Inhibition of human EW-18 cell growth in a cell viability assay.

EOL1 = format: functional, cell-based, Homo sapiens; details: Homo sapiens, EOL1
Description: SANGER: Inhibition of human EoL-1-cell cell growth in a cell viability assay.

GCIY = format: functional, cell-based, Homo sapiens; details: Homo sapiens, GCIY
Description: SANGER: Inhibition of human GCIY cell growth in a cell viability assay.

HT-144 = format: functional, cell-based, Homo sapiens; details: Homo sapiens, HT-144
Description: SANGER: Inhibition of human HT-144 cell growth in a cell viability assay.

HuTu80 = format: functional, cell-based, Homo sapiens, HUTU-80; details: Homo sapiens, HuTu80
Description: SANGER: Inhibition of human HUTU-80 cell growth in a cell viability assay.

IST-MEL1 = format: functional, cell-based, Homo sapiens; details: Homo sapiens, IST-MEL1
Description: SANGER: Inhibition of human IST-MEL1 cell growth in a cell viability assay.

JVM-3 = format: functional, cell-based, Homo sapiens; details: Homo sapiens, JVM-3
Description: SANGER: Inhibition of human JVM-3 cell growth in a cell viability assay.

KGN = format: functional, cell-based, Homo sapiens; details: Homo sapiens, KGN
Description: SANGER: Inhibition of human KGN cell growth in a cell viability assay.

KM12 = format: functional, cell-based, Homo sapiens; details: Homo sapiens, KM12
Description: SANGER: Inhibition of human KM12 cell growth in a cell viability assay.

KNS-42 = format: functional, cell-based, Homo sapiens; details: Homo sapiens, KNS-42
Description: SANGER: Inhibition of human KNS-42 cell growth in a cell viability assay.

KY821 = format: functional, cell-based, Homo sapiens; details: Homo sapiens, KY821
Description: SANGER: Inhibition of human KY821 cell growth in a cell viability assay.

LB2241-RCC = format: functional, cell-based, Homo sapiens; details: Homo sapiens, LB2241-RCC
Description: SANGER: Inhibition of human LB2241-RCC cell growth in a cell viability assay.

Lu-65 = format: functional, cell-based, Homo sapiens; details: Homo sapiens, Lu-65
Description: SANGER: Inhibition of human LU-65 cell growth in a cell viability assay.

MEG-01 = format: functional, cell-based, Homo sapiens; details: Homo sapiens, MEG-01
Description: SANGER: Inhibition of human MEG-01 cell growth in a cell viability assay.

MHH-PREB-1 = format: functional, cell-based, Homo sapiens; details: Homo sapiens, MHH-PREB-1
Description: SANGER: Inhibition of human MHH-PREB-1 cell growth in a cell viability assay.

MN-60 = format: functional, cell-based, Homo sapiens; details: Homo sapiens, MN-60
Description: SANGER: Inhibition of human MN-60 cell growth in a cell viability assay.

MOLT-4 = format: functional, cell-based, Homo sapiens; details: Homo sapiens, MOLT-4
Description: SANGER: Inhibition of human MOLT-4 cell growth in a cell viability assay.

MS-1 = format: functional, cell-based, Homo sapiens; details: Homo sapiens, MS-1
Description: SANGER: Inhibition of human MS-1 cell growth in a cell viability assay.

MV4-11 = format: functional, cell-based, Homo sapiens, MV-4-11; details: Homo sapiens, MV4-11
Description: SANGER: Inhibition of human MV-4-11 cell growth in a cell viability assay.

MZ1-PC = format: functional, cell-based, Homo sapiens; details: Homo sapiens, MZ1-PC
Description: SANGER: Inhibition of human MZ1-PC cell growth in a cell viability assay.

NB5 = format: functional, cell-based, Homo sapiens; details: Homo sapiens, NB5
Description: SANGER: Inhibition of human NB5 cell growth in a cell viability assay.

NB6 = format: functional, cell-based, Homo sapiens; details: Homo sapiens, NB6
Description: SANGER: Inhibition of human NB6 cell growth in a cell viability assay.

NCI-H1092 = format: functional, cell-based, Homo sapiens; details: Homo sapiens, NCI-H1092
Description: SANGER: Inhibition of human NCI-H1092 cell growth in a cell viability assay.

NCI-H1155 = format: functional, cell-based, Homo sapiens; details: Homo sapiens, NCI-H1155
Description: SANGER: Inhibition of human NCI-H1155 cell growth in a cell viability assay.

NEC8 = format: functional, cell-based, Homo sapiens; details: Homo sapiens, NEC8
Description: SANGER: Inhibition of human NEC8 cell growth in a cell viability assay.

NKM-1 = format: functional, cell-based, Homo sapiens; details: Homo sapiens, NKM-1
Description: SANGER: Inhibition of human NKM-1 cell growth in a cell viability assay.

NOMO-1 = format: functional, cell-based, Homo sapiens; details: Homo sapiens, NOMO-1
Description: SANGER: Inhibition of human NOMO-1 cell growth in a cell viability assay.

OMC-1 = format: functional, cell-based, Homo sapiens; details: Homo sapiens, OMC-1
Description: SANGER: Inhibition of human OMC-1 cell growth in a cell viability assay.

RKO = format: functional, cell-based, Homo sapiens; details: Homo sapiens, RKO
Description: SANGER: Inhibition of human RKO cell growth in a cell viability assay.

RXF 393 = format: functional, cell-based, Homo sapiens; details: Homo sapiens, RXF 393
Description: SANGER: Inhibition of human RXF393 cell growth in a cell viability assay.

SF-268 = format: functional, cell-based, Homo sapiens; details: Homo sapiens, SF-268
Description: SANGER: Inhibition of human SF268 cell growth in a cell viability assay.

SK-N-FI = format: functional, cell-based, Homo sapiens; details: Homo sapiens, SK-N-FI
Description: SANGER: Inhibition of human SK-N-FI cell growth in a cell viability assay.

SW684 = format: functional, cell-based, Homo sapiens; details: Homo sapiens, SW684
Description: SANGER: Inhibition of human SW684 cell growth in a cell viability assay.

SW982 = format: functional, cell-based, Homo sapiens; details: Homo sapiens, SW982
Description: SANGER: Inhibition of human SW982 cell growth in a cell viability assay.

8-MG-BA = format: functional, cell-based, Homo sapiens; details: Homo sapiens, 8-MG-BA
Description: SANGER: Inhibition of human 8-MG-BA cell growth in a cell viability assay.

BB65-RCC = format: functional, cell-based, Homo sapiens; details: Homo sapiens, BB65-RCC
Description: SANGER: Inhibition of human BB65-RCC cell growth in a cell viability assay.

BT-474 = format: functional, cell-based, Homo sapiens; details: Homo sapiens, BT-474
Description: SANGER: Inhibition of human BT-474 cell growth in a cell viability assay.

TE-12 = format: functional, cell-based, Homo sapiens; details: Homo sapiens, TE-12
Description: SANGER: Inhibition of human TE-12 cell growth in a cell viability assay.

TGBC24TKB = format: functional, cell-based, Homo sapiens; details: Homo sapiens, TGBC24TKB
Description: SANGER: Inhibition of human TGBC24TKB cell growth in a cell viability assay.

TGW = format: functional, cell-based, Homo sapiens; details: Homo sapiens, TGW
Description: SANGER: Inhibition of human TGW cell growth in a cell viability assay.

no-10 = format: functional, cell-based, Homo sapiens; details: Homo sapiens
Description: SANGER: Inhibition of human no-10 cell growth in a cell viability assay.

COLO-668 = format: functional, cell-based, Homo sapiens; details: Homo sapiens, COLO-668
Description: SANGER: Inhibition of human COLO-668 cell growth in a cell viability assay.

## COc1cccc2c1C(=O)c1c(O)c3c(c(O)c1C2=O)C[C@@](O)(C(=O)CO)C[C@@H]3O[C@H]1C[C@H](N)[C@H](O)[C@H](C)O1 [DOXORUBICIN]
CP66-MEL
  pIC50: < 5.99
CTV-1
  pIC50: 7.79
CW-2
  pIC50: < 5.99
DB
  pIC50: 6.79
DOHH-2
  pIC50: 7.70
EKVX
  pIC50: 6.06
ES6
  pIC50: 6.86
ETK-1
  pIC50: 7.08
EW-18
  pIC50: 6.60
EOL1
  pIC50: 7.56
GCIY
  pIC50: 6.14
HT-144
  pIC50: 8.45
HuTu80
  pIC50: 8.67
IST-MEL1
  pIC50: 7.35
JVM-3
  pIC50: < 5.99
KGN
  pIC50: 8.20
KM12
  pIC50: 6.66
KNS-42
  pIC50: 6.61
KY821
  pIC50: < 5.99
LB2241-RCC
  pIC50: 6.63
Lu-65
  pIC50: 6.46
MEG-01
  pIC50: 6.75
MHH-PREB-1
  pIC50: 6.64
MN-60
  pIC50: 6.22
MOLT-4
  pIC50: 7.64
MS-1
  pIC50: 6.60
MV4-11
  pIC50: 8.00
MZ1-PC
  pIC50: 7.62
NB5
  pIC50: 6.44
NB6
  pIC50: < 5.99
NCI-H1092
  pIC50: 6.13
NCI-H1155
  pIC50: 6.24
NEC8
  pIC50: 7.47
NKM-1
  pIC50: 7.53
NOMO-1
  pIC50: 6.65
OMC-1
  pIC50: 6.76
RKO
  pIC50: 7.65
RXF 393
  pIC50: 6.47
SF-268
  pIC50: 7.03
SK-N-FI
  pIC50: < 5.99
SW684
  pIC50: < 5.99
SW982
  pIC50: 8.22
8-MG-BA
  pIC50: 7.66
BB65-RCC
  pIC50: 6.83
BT-474
  pIC50: 6.11
TE-12
  pIC50: 7.09
TGBC24TKB
  pIC50: < 5.99
TGW
  pIC50: < 5.99
no-10
  pIC50: 6.79
COLO-668
  pIC50: 7.07

## Nc1ccn([C@@H]2O[C@H](CO)[C@@H](O)C2(F)F)c(=O)n1 [GEMCITABINE]
CP66-MEL
  pIC50: < 5.99
CTV-1
  pIC50: 7.85
CW-2
  pIC50: < 5.99
DB
  pIC50: 7.07
DOHH-2
  pIC50: 6.71
EKVX
  pIC50: < 5.99
ES6
  pIC50: > 8.40
ETK-1
  pIC50: 8.09
EW-18
  pIC50: 7.14
EOL1
  pIC50: > 8.40
GCIY
  pIC50: 7.03
HT-144
  pIC50: 8.31
HuTu80
  pIC50: > 8.40
IST-MEL1
  pIC50: > 8.40
JVM-3
  pIC50: < 5.99
KGN
  pIC50: > 8.40
KM12
  pIC50: 7.04
KNS-42
  pIC50: 6.13
KY821
  pIC50: < 5.99
LB2241-RCC
  pIC50: > 8.40
Lu-65
  pIC50: 6.52
MEG-01
  pIC50: 8.90
MHH-PREB-1
  pIC50: 6.61
MN-60
  pIC50: < 5.99
MOLT-4
  pIC50: 7.19
MS-1
  pIC50: 7.33
MV4-11
  pIC50: > 8.40
MZ1-PC
  pIC50: 6.59
NB5
  pIC50: < 5.99
NB6
  pIC50: < 5.99
NCI-H1092
  pIC50: < 5.99
NCI-H1155
  pIC50: 6.31
NEC8
  pIC50: 7.45
NKM-1
  pIC50: > 8.40
NOMO-1
  pIC50: 7.54
OMC-1
  pIC50: 6.23
RKO
  pIC50: > 8.40
RXF 393
  pIC50: < 5.99
SF-268
  pIC50: > 8.40
SK-N-FI
  pIC50: < 5.99
SW684
  pIC50: < 5.99
SW982
  pIC50: > 8.40
8-MG-BA
  pIC50: 8.23
BB65-RCC
  pIC50: > 8.40
BT-474
  pIC50: < 5.99
TE-12
  pIC50: < 5.99
TGBC24TKB
  pIC50: < 5.99
TGW
  pIC50: 6.70
no-10
  pIC50: 6.76
COLO-668
  pIC50: 8.58
